B1: MIG: recombinant mouse MIG (R&D systems, catalog number 492-MM); monokine induced by gamma interferon, CXC chemokine (protein, UniProt P18340 22-126, looked up)
C-X-C motif chemokine 9: TLVIRNARCSCISTSRGTIHYKSLKDLKQFAPSPNCNKTEIIATLKNGDQTCLDPDSANVKKLMKEWEKKISQKKKQKRGKKHQKNMKNRKPKTPQSRRRSRKTT

Legend:
estrogen levels = conditions: while raising testosterone levels; cited from earlier work
Mouse thoracic aortas = assay: Acetylcholine relaxation of mouse thoracic aortic rings on an isometric wire myograph after exposure to MIG; conditions: mouse thoracic aortic sections incubated with different concentrations of recombinant mouse MIG, pre-contracted with U46619; FIG. 6
Experimental: Mouse thoracic aortas were carefully dissected, and vessels were cut into small rings and mounted on an isometric wire myograph chambers (Danish Myo Technology) and subjected to a normalization protocol. Following normalization, the vessels were incubated with either PBS or different concentrations of recombinant mouse MIG (R&D systems, catalog number 492-MM). A concentration-dependent contraction curve was created by accumulative application of the prostaglandin agonist U46619. Subsequently, concentration-dependent relaxation curves of Acetylcholine were conducted on these vessels and percent relaxation calculated for each dose.

Molecule	reduction of estrogen levels (estrogen levels) [%]	effect on vasorelaxation (percent relaxation to Acetylcholine) (Mouse thoracic aortas)
N#Cc1ccc(C(c2ccc(C#N)cc2)n2cncn2)cc1 [Letrozole]	98	–
B1	–	impaired vascular reactivity with increasing concentrations of MIG

— US11359011B2, “Treatment and prevention of cardiovascular disease” (Edifice Health, Inc., priority 2019, dated 2022)
